What was measured:
[1] = Concentration required to kill 50% of V79-379A cells under N2 (in vitro); assay type: functional, Cricetulus griseus
[2] = Concentration required to kill 50% of aerobic V79-379A cells (in vitro); assay type: functional, Cricetulus griseus
[3] = Ratio of concentration required to kill 50% aerobic V79-379A cells C50(air) to that of concentration required to kill 50% of cells under N2 C50(N2) was determined; assay type: functional
[4] = Radiosensitization of hypoxic V79-379A cells was determined in vitro; expressed as concentration required to give enhancement ratio of 1.6

O=[N+]([O-])c1nccn1CCC1CO1 (stereo not given)
C50 [1]: 0.25 mM | C50 [2]: 0.5 mM | Ratio [3]: 2

CC(C)(C(O)Cn1ccnc1[N+](=O)[O-])N1CC1 (stereo not given)
C1.6 [4]: 0.07 mM | C50 [1]: 0.008 mM | C50 [2]: 0.1 mM | Ratio [3]: 12.5

O=[N+]([O-])c1nccn1[C@H]1CCC[C@@H](N2CC2)[C@@H]1O
C1.6 [4]: 0.45 mM | C50 [1]: 0.35 mM | C50 [2]: 0.35 mM | Ratio [3]: 1

CC(O)(CN1CC1)Cn1ccnc1[N+](=O)[O-] (stereo not given)
C50 [1]: 0.02 mM | C50 [2]: 0.55 mM | Ratio [3]: 27.5

C[C@@H]([C@H](O)Cn1ccnc1[N+](=O)[O-])N1CC1
C1.6 [4]: 0.12 mM | C50 [1]: 0.01 mM | C50 [2]: 0.2 mM | Ratio [3]: 20

CC1CN1CC(O)Cn1ccnc1[N+](=O)[O-] (stereo not given)
C1.6 [4]: 0.08 mM | C50 [1]: 0.065 mM | C50 [2]: 0.79 mM | Ratio [3]: 12.2

O=[N+]([O-])c1nccn1[C@@H]1CCC[C@@H]2O[C@@H]21
C50 [1]: 0.18 mM | C50 [2]: 0.28 mM | Ratio [3]: 1.5

CC1(Cn2ccnc2[N+](=O)[O-])CO1 (stereo not given)
C50 [1]: 0.2 mM | C50 [2]: 0.2 mM | Ratio [3]: 1

O=[N+]([O-])c1nccn1CCCCC1CO1 (stereo not given)
C50 [1]: 0.7 mM | C50 [2]: 1.2 mM | Ratio [3]: 1.7

O=[N+]([O-])c1nccn1CC(O)CCC1CO1 (stereo not given)
C1.6 [4]: 0.4 mM | C50 [1]: 0.4 mM | C50 [2]: 0.6 mM | Ratio [3]: 1.5

CC1OC1Cn1ccnc1[N+](=O)[O-] (stereo not given)
C50 [1]: 3.3 mM | C50 [2]: 10 mM | Ratio [3]: 3

O=[N+]([O-])c1nccn1CC(O)C1CO1 (stereo not given)
C1.6 [4]: 0.2 mM | C50 [1]: 0.36 mM | C50 [2]: 1.2 mM | Ratio [3]: 3.3

O=[N+]([O-])c1nccn1CC(O)CN1CC1 (stereo not given)
C1.6 [4]: 0.1 mM | C50 [1]: 0.015 mM | C50 [2]: 0.3 mM | Ratio [3]: 20

O=[N+]([O-])c1ncc[nH]1 [AZOMYCIN]
C1.6 [4]: 0.25 mM | C50 [1]: 0.27 mM | C50 [2]: 0.55 mM | Ratio [3]: 2
